These results are taken from patent US20130217702A1 (Richter Gedeon Nyrt., priority 2010, published 2013).

pIC50, pKi: −log10 of the molar value.

Assay [1] concerns the target T1, recombinant human B1 receptors (Homo sapiens, UniProt P46663).
T1 construct: host or cells: CHO (CHO-B1)
T1 sequence (P46663 1-353): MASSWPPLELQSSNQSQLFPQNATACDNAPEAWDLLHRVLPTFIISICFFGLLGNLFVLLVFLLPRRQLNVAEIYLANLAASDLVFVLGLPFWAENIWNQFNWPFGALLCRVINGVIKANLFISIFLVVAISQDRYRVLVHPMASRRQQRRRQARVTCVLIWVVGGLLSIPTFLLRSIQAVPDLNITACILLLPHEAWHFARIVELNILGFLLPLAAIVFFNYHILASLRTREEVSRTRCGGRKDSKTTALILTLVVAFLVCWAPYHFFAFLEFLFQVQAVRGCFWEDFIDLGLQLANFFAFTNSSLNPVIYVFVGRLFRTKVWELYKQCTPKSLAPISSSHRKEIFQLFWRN
Description: Functional assay: antagonist potency by cytosolic calcium measurement (plate reader fluorimeter) in CHO-B1 cells, agonist LysDABK. It is filed as cell-based. Conditions: CHO-B1 cells, inhibition of LysDABK (EC80)-evoked [Ca2+]i elevation; read-out: B1 func. In short, it runs like this: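 IC50 is the concentration giving half-maximal inhibition of the LysDABK (EC80) calcium response, fitted from at least three experiments. CHO cells stably expressing human B1 were dye-loaded, exposed to compound for 20-25 min, then read by fluo-4 fluorescence (ΔF/F) at 37 °C.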

Assay [2] has as its target T2, human recombinant bradykinin B1 receptor (Homo sapiens, UniProt P46663).
T2 construct: host or cells: CHO cells, clone hB1-A5
T2 sequence (P46663 1-353): T1 sequence (P46663 1-353)
Briefly: Human recombinant bradykinin B1 receptor competitive radioligand binding. Particulars: hB1 expressed in CHO cells, [3H]-[Des-Arg10] Kallidin radioligand; read-out: B1 binding. An outline of the steps:
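Membranes from CHO cells expressing hB1 (20 μg protein/tube) incubated 15 min at 25° C. with [3,4-prolyl-3,4-^3H(N)]-[Des-Arg^10] Kallidin; nonspecific binding defined with 10 μM Lys-des-Arg^9-Bradykinin. Bound label collected by filtration and counted. IC50 from ≥7-point curves in triplicate; Ki by Cheng-Prusoff.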

In the case of `Cc1nc(-c2c(Cl)c3ccccc3n2-c2ccc(CNC(=O)C3(NC(=O)c4cnc5ccccc5c4)CC3)cc2)no1` [Example 159, Quinoline-3-carboxylic acid (1-{4-[3-chloro-2-(5-methyl-[1,2,4]oxadiazol-3-yl)-indol-1-yl]-benzylcarbamoyl}-cyclopropyl)-amide], in assay [1], the pIC50 was over 7.70. The pKi in assay [2] was over 7.70.
Consider `Cc1nc(-c2c(Cl)c3ccccc3n2-c2ccc(CNC(=O)C3(NC(=O)c4ccc(=O)[nH]c4)CC3)cc2)no1` [Example 160, 6-Oxo-1,6-dihydro-pyridine-3-carboxylic acid (1-{4-[3-chloro-2-(5-methyl-[1,2,4]oxadiazol-3-yl)-indol-1-yl]-benzylcarbamoyl}-cyclopropyl)-amide], for which, in assay [1], the pIC50 is over 7.70. In addition, the pKi in assay [2] is over 7.70.
In the case of `Cc1cnc(C(=O)NC2(C(=O)NCc3ccc(-n4c(-c5noc(C)n5)c(Cl)c5ccccc54)cc3)CC2)cn1` [Example 161, 5-Methyl-pyrazine-2-carboxylic acid (1-{4-[3-chloro-2-(5-methyl-[1,2,4]oxadiazol-3-yl)-indol-1-yl]-benzylcarbamoyl}-cyclopropyl)-amide], in assay [1], the pIC50 was 7.00 to 7.70. Moreover, in assay [2], the pKi is over 7.70.
Taken in the same sequence, the figures for `Cc1nc(-c2c(Cl)c3ccccc3n2-c2ccc(CNC(=O)C3(NC(=O)c4cccc(=O)[nH]4)CC3)cc2)no1` [Example 162, 6-Oxo-1,6-dihydro-pyridine-2-carboxylic acid (1-{4-[3-chloro-2-(5-methyl-[1,2,4]oxadiazol-3-yl)-indol-1-yl]-benzylcarbamoyl}-cyclopropyl)-amide] were over 7.70 and over 7.70.
Regarding `Cc1nc(-c2c(Cl)c3ccccc3n2-c2ccc(CNC(=O)C3(NC(=O)CC(F)(F)F)CC3)cc2)no1` [Example 163, 1-(3,3,3-Trifluoro-propionylamino)-cyclopropanecarboxylic acid 4-[3-chloro-2-(5-methyl-[1,2,4]oxadiazol-3-yl)-indol-1-yl]-benzylamide], the pIC50 in assay [1] was over 7.70. In addition, the pKi in assay [2] is over 7.70.
As for `Cc1nc(-c2c(Cl)c3ccccc3n2-c2ccc(CNC(=O)C3(NC(=O)c4ccnc(F)c4)CC3)cc2)no1` [Example 164, N-(1-{4-[3-Chloro-2-(5-methyl-[1,2,4]oxadiazol-3-yl)-indol-1-yl]-benzylcarbamoyl}-cyclopropyl)-2-fluoro-isonicotinamide], the pIC50 in assay [1] is over 7.70. Also, the pKi in assay [2] is over 7.70.
Take `Cc1nc(-c2c(Cl)c3ccccc3n2-c2ccc(CNC(=O)C3(NC(=O)c4cc(C5CC5)on4)CC3)cc2)no1` [Example 165, 5-Cyclopropyl-isoxazole-3-carboxylic acid (1-{4-[3-chloro-2-(5-methyl-[1,2,4]oxadiazol-3-yl)-indol-1-yl]-benzylcarbamoyl}-cyclopropyl)-amide]: the pIC50 in assay [1] is over 7.70. Further, the pKi in assay [2] was over 7.70.
For the molecule `Cc1nc(-c2c(Cl)c3ccccc3n2-c2ccc(CNC(=O)C3(NC(=O)c4cncnc4)CC3)cc2)no1` [Example 166, Pyrimidine-5-carboxylic acid (1-{4-[3-chloro-2-(5-methyl-[1,2,4]oxadiazol-3-yl)indol-1-yl]-benzylcarbamoyl}-cyclopropyl)-amide], in assay [1], the pIC50 was over 7.70. The pKi in assay [2] is over 7.70.
With `Cc1nc(-c2c(Cl)c3ccccc3n2-c2ccc(CNC(=O)C3(NC(=O)c4ccsc4)CC3)cc2)no1` [Example 167, Thiophene-3-carboxylic acid (1-{4-[3-chloro-2-(5-methyl-[1,2,4]oxadiazol-3-yl)-indol-1-yl]-benzylcarbamoyl}-cyclopropyl)-amide], the pIC50 in assay [1] is 7.00 to 7.70. Further, the pKi in assay [2] is 7.00 to 7.70.
With `Cc1nc(-c2c(Cl)c3ccccc3n2-c2ccc(CNC(=O)C3(NC(=O)C4CCC(=O)N4)CC3)cc2)no1` (centres unmarked) [Example 168, 5-Oxo-pyrrolidine-2-carboxylic acid (1-{4-[3-chloro-2-(5-methyl-[1,2,4]oxadiazol-3-yl)-indol-1-yl]-benzylcarbamoyl}-cyclopropyl)-amide], in assay [1], the pIC50 was 7.00 to 7.70. In addition, in assay [2], the pKi was over 7.70.
Take `Cc1nc(-c2c(Cl)c3ccccc3n2-c2ccc(CNC(=O)C3(NC(=O)C=Cc4ccoc4)CC3)cc2)no1` [Example 169, 1-(3-Furan-3-yl-acryloylamino)-cyclopropanecarboxylic acid 4-[3-chloro-2-(5-methyl-[1,2,4]oxadiazol-3-yl)-indol-1-yl]-benzylamide]: the pIC50 in assay [1] is over 7.70. In assay [2], the pKi is over 7.70.
For `Cc1nc(-c2c(Cl)c3ccccc3n2-c2ccc(CNC(=O)C3(NC(=O)c4ccc(C#N)cc4)CC3)cc2)no1` [Example 170, N-(1-{4-[3-Chloro-2-(5-methyl-[1,2,4]oxadiazol-3-yl)-indol-1-yl]-benzylcarbamoyl}-cyclopropyl)-4-cyano-benzamide], in assay [1], the pIC50 is 7.00 to 7.70. In assay [2], the pKi was over 7.70.
Regarding `Cc1nc(-c2c(Cl)c3ccccc3n2-c2ccc(CNC(=O)C3(NC(=O)C=Cc4ccco4)CC3)cc2)no1` [Example 171, 1-(3-Furan-2-yl-acryloylamino)-cyclopropanecarboxylic acid 4-[3-chloro-2-(5-methyl-[1,2,4]oxadiazol-3-yl)-indol-1-yl]-benzylamide], the pIC50 in assay [1] is 7.00 to 7.70. Also, the pKi in assay [2] was over 7.70.
As to `Cc1nc(-c2c(Cl)c3ccccc3n2-c2ccc(CNC(=O)C3(NC(=O)c4cccs4)CC3)cc2)no1` [Example 172, Thiophene-2-carboxylic acid (1-{4-[3-chloro-2-(5-methyl-[1,2,4]oxadiazol-3-yl)-indol-1-yl]-benzylcarbamoyl}-cyclopropyl)-amide], in assay [1], the pIC50 was over 7.70. In assay [2], the pKi is over 7.70.
In the case of `CSc1ccc(C(=O)NC2(C(=O)NCc3ccc(-n4c(-c5noc(C)n5)c(Cl)c5ccccc54)cc3)CC2)s1` [Example 173, 5-Methylsulfanyl-thiophene-2-carboxylic acid (1-{4-[3-chloro-2-(5-methyl-[1,2,4]oxadiazol-3-yl)-indol-1-yl]-benzylcarbamoyl}-cyclopropyl)-amide], the pIC50 in assay [1] is 7.00 to 7.70. Also, in assay [2], the pKi is over 7.70.
`Cc1nc(-c2c(Cl)c3ccccc3n2-c2ccc(CNC(=O)C3(NC(=O)c4csnn4)CC3)cc2)no1` [Example 174, [1,2,3]Thiadiazole-4-carboxylic acid (1-{4-[3-chloro-2-(5-methyl-[1,2,4]oxadiazol-3-yl)-indol-1-yl]-benzylcarbamoyl}-cyclopropyl)-amide]: the pIC50 in assay [1] was over 7.70. Further, the pKi in assay [2] was over 7.70.
In the case of `COc1cccc(C(=O)NC2(C(=O)NCc3ccc(-n4c(-c5noc(C)n5)c(Cl)c5ccccc54)cc3)CC2)c1` [Example 175, N-(1-{4-[3-Chloro-2-(5-methyl-[1,2,4]oxadiazol-3-yl)-indol-1-yl]-benzylcarbamoyl}-cyclopropyl)-3-methoxy-benzamide], in assay [1], the pIC50 is 7.00 to 7.70. Also, in assay [2], the pKi is over 7.70.
Taken in the same sequence, the figures for `Cc1nc(-c2c(Cl)c3ccccc3n2-c2ccc(CNC(=O)C3(NC(=O)c4cccc(I)c4)CC3)cc2)no1` [Example 176, N-(1-{4-[3-Chloro-2-(5-methyl-[1,2,4]oxadiazol-3-yl)-indol-1-yl]-benzylcarbamoyl}-cyclopropyl)-3-iodo-benzamide] were 7.00 to 7.70 and 7.00 to 7.70.
For `Cc1nc(-c2c(Cl)c3ccccc3n2-c2ccc(CNC(=O)C3(NC(=O)c4cccc(C(F)(F)F)c4)CC3)cc2)no1` [Example 177, N-(1-{4-[3-Chloro-2-(5-methyl-[1,2,4]oxadiazol-3-yl)-indol-1-yl]-benzylcarbamoyl}-cyclopropyl)-3-trifluoromethyl-benzamide], the pIC50 in assay [1] was over 7.70. For the same molecule, in assay [2], the pKi is 7.00 to 7.70.
Taken in the same sequence, the figures for `Cc1nc(-c2c(Cl)c3ccccc3n2-c2ccc(CNC(=O)C3(NC(=O)c4cccc(F)c4)CC3)cc2)no1` [Example 178, N-(1-{4-[3-Chloro-2-(5-methyl-[1,2,4]oxadiazol-3-yl)-indol-1-yl]-benzylcarbamoyl}-cyclopropyl)-3-fluoro-benzamide] were over 7.70 and over 7.70.
Consider `Cc1cccc(C(=O)NC2(C(=O)NCc3ccc(-n4c(-c5noc(C)n5)c(Cl)c5ccccc54)cc3)CC2)c1` [Example 179, N-(1-{4-[3-Chloro-2-(5-methyl-[1,2,4]oxadiazol-3-yl)-indol-1-yl]-benzylcarbamoyl}-cyclopropyl)-3-methyl-benzamide], for which, in assay [1], the pIC50 was 7.00 to 7.70. Besides, in assay [2], the pKi was over 7.70.
`Cc1nc(-c2c(Cl)c3ccccc3n2-c2ccc(CNC(=O)C3(NC(=O)c4cncc(C(F)(F)F)c4)CC3)cc2)no1` [Example 180, N-(1-{4-[3-Chloro-2-(5-methyl-[1,2,4]oxadiazol-3-yl)-indol-1-yl]-benzylcarbamoyl}-cyclopropyl)-5-trifluoromethyl-nicotinamide]: in assay [1], the pIC50 is over 7.70. Also, the pKi in assay [2] was over 7.70.
